The text below walks through data of PubChem BioAssay (NCI).

The structures appear in SMILES notation. “And” between values parts separate entries of the source, which are not always exact repeats. Equal values may be shown once.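 Where inhibition never reached the appropriate level, the endpoint shown equals the highest concentration tested. Otherwise, values were interpolated linearly from a five-concentration, 48-hour dose response in 96-well plates. At the GI50, growth is halved. TGI: total growth inhibition.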

As a reminder, the GI50 is the concentration at which growth is held to half of that of the control. The term TGI denotes the concentration giving total growth inhibition. Higher therefore signals lower sensitivity of the cells.

This assay has as its system MDA-MB-468 breast. Briefly: DTP human tumour cell line panel, 48 h.
With `CC(C)(C)c1ccc(NC(=O)c2cc(=O)c3ccccc3[nH]2)c(C(C)(C)C)c1O`, the GI50 was 7.87 µM and the TGI was 21.9 µM.
The matching figures for `N#C/C(=C/c1cccs1)c1cccs1`: 24.1 µM and over 100 µM.
Take `C[C@]1(O)CC(=O)[C@]2(O)C3=C(C=C[C@]2(O)C1)C(=O)c1c(O)cccc1C3=O`: the GI50 is 1.7 µM and the TGI was determined as 3.87 µM.
The matching figures for `COc1ncnc2c1ncn2C/C(Br)=C(\Br)CCl`: 1.56 µM and 3.29 µM.
Regarding `CN([N-]C(=O)CC(=O)[N-]N(C)C(=S)c1ccccc1)C(=S)c1ccccc1.[Cu+2]`, the 50% growth inhibitory concentration (GI50) was under 0.01 µM and the TGI worked out at 0.0386 µM.
The matching figures for `COc1ccc(-n2nc(C)c3c(Nc4ccc(NC(=O)Nc5cc(C(F)(F)F)ccc5F)cc4)ncnc32)cc1`: 2.48 µM and 6.14 µM.
With `CCCCCn1ncc(-c2c(O)c(O)cc3c(O)c(-c4c(C)cc5c(-c6cnn(CCCCC)n6)c(O)c(O)cc5c4O)c(C)cc23)n1`, the GI50 is 0.102 µM and the TGI came out at 3.76 µM.
As to `CCN(CC)CCNc1ccc(CO)c2sc3ccccc3c(=O)c12`, the GI50 was 1.25 µM and the TGI worked out at 3.03 µM.
The matching figures for `Cc1ccc2nc(NC(=O)CSC(=S)N3CCN(Cc4ccccc4)CC3)sc2c1`: over 100 µM and over 100 µM.
`C=C(C)[C@@H]1CC[C@]2(C)[C@H](CC=C3[C@@H]4CC(C)(C)CC[C@]4(C(=O)OC)CC[C@]32C)[C@@]1(C)CC/C(N)=N/O`: the GI50 is 1.85 µM and the TGI was determined as 5.06 µM.
For the molecule `Cc1cc2cc(Oc3ccnc(Nc4cccc(CS(=O)(=O)NCCN(C)C)c4)n3)ccc2[nH]1`, the GI50 is 6.49 µM and the TGI was found to be 21.3 µM.
The matching figures for `CCOc1ccc2c(-c3ccnc(Nc4cccc(C(F)(F)F)c4)n3)cnn2n1`: 1.14 µM and over 25 µM.
On the same counts, the results for `COc1ccc(/C=C2/CCOC2=O)cc1` are over 100 µM and over 100 µM.
The matching figures for `COc1cc(/C=C\c2cc(/C=C\c3ccc(O)c(OC)c3)n(C(=O)Nc3ccc(C(F)(F)F)cc3)n2)ccc1O`: 2.3 µM and 6.25 µM.
Take `CCCCn1c(=O)c(/C=C/C(=O)/C=C/c2ccc(O)c(OC)c2)cc2ccc(Cl)cc21`: the GI50 was 1.46 µM and the TGI amounted to 4.37 µM.
Take `COc1ccc(S(=O)(=O)N2CCCCC2)cc1NC(=O)c1[nH]c(C)c2c1CCCCC2=O`: the GI50 was 0.468 µM and the TGI is 3.9 µM.
In the case of `C=C(C)[C@@H]1CC[C@]2(c3ncc(C)o3)CC[C@]3(C)[C@H](CC[C@@H]4[C@@](C)(CCC#N)[C@H](C(=C)C)CC[C@]43C)[C@@H]12`, the GI50 was 3 µM and the TGI came out at 12.9 µM.
The matching figures for `CC(=O)O[C@H]1CC[C@]2(C)[C@H]3C(=O)C=C4[C@@H]5C[C@](C)(C(=O)N6CCCNCC6)CC[C@]5(C)CC[C@@]4(C)[C@]3(C)CC[C@H]2C1(C)C`: 1.7 µM and 3.56 µM.
On the same counts, the results for `CCCN(CCC)c1ccc(C=O)c(OC)c1` are 6.22 µM and 63 µM.
The matching figures for `COc1ccc(CNCCCN2C(=O)c3ccc4c5c(ccc(c35)C2=O)C(=O)N(CCCNCCCCNCCCN)C4=O)c(OC)c1OC`: 0.155 µM and 0.334 µM.
Consider `Cc1cc(C)c(S(=O)(=O)Oc2ccccc2[N+](=O)[O-])c(C)c1`, for which the GI50 is 1.48 µM and the TGI stood at 5.62 µM.
The matching figures for `CN1CCN(c2ccc3nc(-c4ccc5nc(-c6ccc(C(F)(F)F)cc6)[nH]c5c4)[nH]c3c2)CC1`: 1.85 µM and 3.65 µM.
In the case of `CC(=O)OC1CC(C)c2c1ncnc2N1CCN(C(=O)OC(C)(C)C)CC1` (configuration not stated), the GI50 is 33.9 µM and the TGI was over 100 µM.
Turning to `CCCCCCCCCCCCCCCC[N+](C)(C)C`, the GI50 is 0.118 µM and 0.328 µM; the TGI was 0.361 µM and 1.93 µM.
Take `CN1CCN(c2ccc(NC3=C(Cl)C(=O)c4ncccc4C3=O)cc2C(F)(F)F)CC1`: the GI50 is 0.746 µM and the TGI was 2.69 µM.
`COc1cccc2c1[C@H](OC)[C@]13O[C@@]1(C2=O)[C@H](O)[C@H](C)[C@@](O)(C(=O)[C@@H]1O[C@H]1C)[C@@H]3O`: the GI50 was 0.204 µM and the TGI was 0.48 µM.
Turning to `COc1cc2c(C#N)n3c(c2cc1OC)C(=O)C(c1ccccc1)Oc1ccccc1-3` (configuration not stated), the GI50 is 4.68 µM and the TGI is over 100 µM.
On the same counts, the results for `CC(C)NCCCNC1=C(Cl)C(=O)c2ccccc2C1=O` are 2.85 µM and 8.78 µM.
Turning to `COc1cc(C)c(N(C)C(=O)CN(C)C)cc1Nc1nc(Nc2cccc(F)c2C(N)=O)c2cc[nH]c2n1`, the GI50 is 14.5 µM and the TGI was over 25 µM.
The matching figures for `COc1cccc2c1C(=O)c1c(O)c3c(c(O)c1C2=O)C[C@@](O)(C(=O)COC(=O)c1cccnc1)C[C@@H]3OC1CC(N)C(O)C(C)O1` (some centres not stated): 0.136 µM and 0.465 µM.
On the same counts, the results for `O=c1cc(-c2ccccc2)oc2cc(OCc3cn(Cc4ccc(F)cc4)nn3)cc(O)c12` are 20 µM and over 100 µM.
In the case of `CCN(CCc1ccc(F)cc1)c1ccc(CO)c(Cl)c1`, the GI50 was 0.217 µM and the TGI came to 0.724 µM.
Regarding `CCCCCCCCOC(=O)c1cc(O)c(O)c(O)c1`, the GI50 is 3.49 µM and the TGI was 16.7 µM.
For the molecule `CCc1nc2cc(/C=C/C(=O)NO)c(F)cc2c(=O)n1CCc1ccccc1`, the GI50 was 0.474 µM and the TGI was determined as 2.92 µM.
On the same counts, the results for `COc1ccccc1NC(=O)N/C(N)=N/c1nc2ccccc2s1` are 0.299 µM and over 100 µM.
In the case of `COc1ccc(OC)c(-c2cn3nc(-c4c[nH]c5ccc(Br)cc45)sc3n2)c1`, the GI50 is 2.94 µM and the TGI came to 8.41 µM.
